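Test compounds were applied to cells in 96-well plates for 48 hours at 5 doses. Definition used: TGI = concentration required for complete inhibition of growth.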
Assays:
Assay in all cases: NCI anticancer screen, dose series, 48 h
[1] = test system: A498 renal
[2] = test system: HCT-15 colon
[3] = test system: HT29 colon
[4] = test system: NCI-H522 lung
[5] = test system: SK-MEL-28 melanoma
[6] = test system: SNB-75 CNS
[7] = test system: SN12C renal
[8] = test system: SF-539 CNS
[9] = test system: SNB-78 CNS
[10] = test system: SF-295 CNS
[11] = test system: KM12 colon
[12] = test system: LXFL 529 NSCLC
[13] = test system: UO-31 renal
[14] = test system: OVCAR-3 ovarian
[15] = test system: 786-0 renal
[16] = test system: UACC-257 melanoma
[17] = test system: RXF 393 renal
[18] = test system: LOX IMVI melanoma
[19] = test system: SF-268 CNS
[20] = test system: HCC-2998 colon
[21] = test system: CCRF-CEM leukemia
[22] = test system: RXF-631 renal
[23] = test system: NCI-H460 lung
[24] = test system: UACC-62 melanoma
[25] = test system: TK-10 renal
[26] = test system: OVCAR-5 ovarian
[27] = test system: OVCAR-4 ovarian
[28] = test system: HL-60(TB) leukemia
[29] = test system: A549 NSCLC
[30] = test system: HOP-18 NSCLC
[31] = test system: U251 CNS
[32] = test system: OVCAR-8 ovarian
[33] = test system: HOP-62 NSCLC
[34] = test system: HCT-116 colon
[35] = test system: HOP-92 NSCLC
[36] = test system: MALME-3M melanoma
[37] = test system: SK-OV-3 ovarian
[38] = test system: SNB-19 CNS
[39] = test system: DMS 114 small cell lung
[40] = test system: SW-620 colon
[41] = test system: DMS 273 small cell lung
[42] = test system: IGROV1 ovarian
[43] = test system: M14 melanoma
[44] = test system: SK-MEL-5 melanoma
[45] = test system: DLD-1 colon
[46] = test system: NCI-H226 lung
[47] = test system: EKVX NSCLC
[48] = test system: RPMI-8226 leukemia
[49] = test system: NCI-H23 lung
[50] = test system: COLO 205 colon
[51] = test system: MOLT-4 leukemia
[52] = test system: K-562 leukemia
[53] = test system: SR leukemia
[54] = test system: M19-MEL melanoma
[55] = test system: ACHN renal
[56] = test system: SK-MEL-2 melanoma
[57] = test system: CAKI-1 renal

CC(C)(CN1CCCCC1)C(=O)/C=C/c1ccc(Cl)c(Cl)c1
TGI [1]: 3.09 µM | TGI [2]: 2.73 µM | TGI [3]: 3.06 µM | TGI [4]: 2.67 µM | TGI [5]: 3.37 µM | TGI [6]: 3.13 µM | TGI [7]: 2.92 µM | TGI [8]: 4.6 µM | TGI [9]: 4.5 µM | TGI [10]: 5.86 µM | TGI [11]: 3.25 µM | TGI [12]: 2.78 µM | TGI [13]: 2.99 µM | TGI [14]: 2.94 µM | TGI [15]: 2.69 µM | TGI [16]: 2.41 µM | TGI [17]: 2.42 µM | TGI [18]: 2.76 µM | TGI [19]: 3.74 µM | TGI [20]: 3.21 µM | TGI [21]: 3.27 µM | TGI [22]: 3.72 µM | TGI [23]: 3.46 µM | TGI [24]: 4.06 µM | TGI [25]: 2.8 µM | TGI [26]: 3.08 µM | TGI [27]: 2.87 µM | TGI [28]: 3.4 µM | TGI [29]: 4.07 µM | TGI [30]: 2.85 µM | TGI [31]: 2.7 µM | TGI [32]: > 100 µM | TGI [33]: 3.8 µM | TGI [34]: 3.08 µM | TGI [35]: 2.34 µM | TGI [36]: 3.31 µM | TGI [37]: 7.51 µM | TGI [38]: 12.2 µM | TGI [39]: 3.05 µM | TGI [40]: 2.94 µM | TGI [41]: 3.2 µM | TGI [42]: 4.15 µM | TGI [43]: 3.07 µM | TGI [44]: 3.5 µM | TGI [45]: 3.5 µM | TGI [46]: 3.15 µM | TGI [47]: 3.29 µM | TGI [48]: 5.34 µM | TGI [49]: 3.26 µM | TGI [50]: 2.85 µM | TGI [51]: 4.57 µM | TGI [52]: 4.13 µM | TGI [53]: 4.69 µM | TGI [54]: 3.21 µM | TGI [55]: 2.88 µM | TGI [56]: 3.18 µM

COc1ccc(C(O)c2cc(OC)c(OC)c(OC)c2)cc1 (configuration not stated)
TGI [1]: > 100 µM | TGI [2]: > 100 µM | TGI [3]: > 100 µM | TGI [4]: 35.5 µM | TGI [5]: > 100 µM | TGI [7]: > 100 µM | TGI [8]: 63.7 µM | TGI [9]: > 100 µM | TGI [10]: 29.2 µM | TGI [11]: > 100 µM | TGI [12]: > 100 µM | TGI [13]: > 100 µM | TGI [14]: 47 µM | TGI [15]: > 100 µM | TGI [16]: > 100 µM | TGI [17]: 30.6 µM | TGI [18]: > 100 µM | TGI [19]: > 100 µM | TGI [21]: > 100 µM | TGI [22]: > 100 µM | TGI [23]: > 100 µM | TGI [24]: > 100 µM | TGI [25]: > 100 µM | TGI [26]: > 100 µM | TGI [27]: > 100 µM | TGI [28]: 39.5 µM | TGI [29]: > 100 µM | TGI [30]: > 100 µM | TGI [31]: > 100 µM | TGI [32]: > 100 µM | TGI [33]: > 100 µM | TGI [34]: > 100 µM | TGI [35]: > 100 µM | TGI [57]: > 100 µM | TGI [36]: > 100 µM | TGI [38]: > 100 µM | TGI [39]: 37.5 µM | TGI [40]: > 100 µM | TGI [41]: > 100 µM | TGI [42]: > 100 µM | TGI [43]: 83.3 µM | TGI [44]: 42.2 µM | TGI [45]: > 100 µM | TGI [46]: > 100 µM | TGI [47]: > 100 µM | TGI [48]: > 100 µM | TGI [50]: 26.4 µM | TGI [51]: > 100 µM | TGI [52]: > 100 µM | TGI [54]: > 100 µM | TGI [55]: > 100 µM
